Experiments:
corn = assay: Test B pre/postemergence corn; format: in vivo, Zea mays
Summary of the method: (§1)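 Test chemicals in a non-phytotoxic solvent mixture with surfactant were sprayed preemergence onto planted seeds and postemergence onto plants 2 to 18 cm tall (1- to 4-leaf stage). After twelve to sixteen days in a greenhouse, injury was visually rated against untreated controls from 0 (no effect) to 10 (complete control).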

pigweed = assay: Test B pre/postemergence pigweed; format: in vivo, Amaranthus retroflexus
Summary of the method: as §1

morningglory = assay: Test B pre/postemergence morningglory; format: in vivo, Ipomoea hederacea
Summary of the method: as §1

giant foxtail = assay: Test B pre/postemergence giant foxtail; format: in vivo, Setaria faberii
Summary of the method: as §1

duck salad = assay: Test B flood test duck salad; format: in vivo, Heteranthera limosa
Summary of the method: (§2)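 Plants were grown to the 2-leaf stage before treatment with test chemical, then held in a greenhouse for twelve to sixteen days. Injury was visually rated against untreated controls on a 0–10 scale, where 0 is no effect and 10 is complete control.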

soybean = assay: Test B pre/postemergence soybean; format: in vivo, Glycine max
Summary of the method: as §1

purple nutsedge = assay: Test B pre/postemergence purple nutsedge; format: in vivo, Cyperus rotundus
Summary of the method: as §1

blackgrass = assay: Test B pre/postemergence blackgrass; format: in vivo, Alopecurus myosuroides
Summary of the method: as §1

cocklebur = assay: Test B pre/postemergence cocklebur; format: in vivo, Xanthium strumarium
Summary of the method: as §1

smallflower flatsedge = assay: Test B flood test smallflower flatsedge; format: in vivo, Cyperus difformis
Summary of the method: as §2

bamyardgrass = assay: Test B flood test barnyardgrass; format: in vivo, Echinochloa crus-galli
Summary of the method: as §2

wheat = assay: Test B pre/postemergence wheat; format: in vivo, Triticum aestivum
Summary of the method: as §1

sugar beet = assay: Test B pre/postemergence sugar beet; format: in vivo, Beta vulgaris
Summary of the method: as §1

bedstraw = assay: Test B pre/postemergence bedstraw; format: in vivo, Galium aparine; conditions: scale of 0 to 10 where 0 is no effect and 10 is complete control
Summary of the method: as §1

velvetleaf = assay: Test B pre/postemergence velvetleaf; format: in vivo, Abutilon theophrasti
Summary of the method: as §1

rice = assay: Test B flood test rice; format: in vivo, Oryza sativa
Summary of the method: as §2

rape = assay: Test B pre/postemergence rape; format: in vivo, Brassica napus
Summary of the method: as §1

surinam grass = assay: Test B pre/postemergence surinam grass; format: in vivo, Brachiaria decumbens
Summary of the method: as §1

wild oat = assay: Test B pre/postemergence wild oat; format: in vivo, Avena fatua
Summary of the method: as §1

crabgrass = assay: Test B pre/postemergence crabgrass; format: in vivo, Digitaria sanguinalis
Summary of the method: as §1

[1] = Preemergence, Rate 250 g/ha, scale of 0 to 10 where 0 is no effect and 10 is complete control
[2] = Preemergence, Rate 500 g/ha, scale of 0 to 10 where 0 is no effect and 10 is complete control
[3] = Rate 62 g/ha, Postemergence, scale 0 to 10, 0 no effect, 10 complete control
[4] = Rate 125 g/ha, Postemergence, scale of 0 to 10 where 0 is no effect and 10 is complete control
[5] = Rate 250 g/ha, Postemergence, scale of 0 to 10 where 0 is no effect and 10 is complete control
[6] = Rate 500 g/ha, Postemergence, scale 0 to 10, 0 no effect, 10 complete control
[7] = Rate 62 g/ha, headed Pre-emergence (flood test species), scale 0 to 10 (0 no effect, 10 complete control)
[8] = Rate 125 g/ha, Pre-emergence, flood test species, scale 0 to 10 where 0 is no effect and 10 is complete control
[9] = Rate 250 g/ha, Pre-emergence, flood-test species, scale 0 to 10, 0 is no effect, 10 is complete control
[10] = Rate 500 g/ha, Pre-emergence, flood test species, scale 0 to 10 (0 no effect, 10 complete control)

CCc1cccc(CC)c1-n1c(=O)on(C(=O)N(c2ccccc2)C(C)C)c1=O [Compound 305]
Corn plant response rating (0 to 10 scale) (corn; Preemergence, Rate 125 g/ha): 0 | Corn plant response rating (corn; [1]): 0 | Corn plant response rating (corn; [2]): 0 | Corn plant response rating (corn; [3]): 0 | Corn plant response rating (corn; [4]): 0 | Plant response rating, Corn (corn; [5]): 0 | Corn plant response rating (corn; [6]): 0 | Redroot pigweed plant response rating (0 to 10 scale) (pigweed; Preemergence, Rate 125 g/ha): 0 | Redroot pigweed plant response rating (pigweed; [1]): 3 | Redroot pigweed plant response rating (pigweed; [2]): 7 | Redroot pigweed plant response rating (pigweed; [3]): 3 | Redroot pigweed plant response rating (pigweed; [4]): 3 | Plant response rating, Redroot pigweed (pigweed; [5]): 4 | Morningglory plant response rating (0 to 10 scale) (morningglory; Preemergence, Rate 125 g/ha): 0 | Morningglory plant response rating (morningglory; [1]): 0 | Morningglory plant response rating (morningglory; [2]): 0 | Morningglory plant response rating (morningglory; [3]): 0 | Morningglory plant response rating (morningglory; [4]): 0 | Plant response rating, Morningglory (morningglory; [5]): 0 | Giant foxtail plant response rating (0 to 10 scale) (giant foxtail; Preemergence, Rate 125 g/ha): 8 | Giant foxtail plant response rating (giant foxtail; [1]): 9 | Giant foxtail plant response rating (giant foxtail; [2]): 10 | Giant foxtail plant response rating (giant foxtail; [3]): 0 | Giant foxtail plant response rating (giant foxtail; [4]): 0 | Plant response rating, Giant foxtail (giant foxtail; [5]): 0 | Ducksalad plant response rating (duck salad; [7]): 0 | Ducksalad plant response rating (duck salad; [8]): 0 | Ducksalad plant response rating (duck salad; [9]): 0 | Ducksalad plant response rating (duck salad; [10]): 0 | Soybean plant response rating (0 to 10 scale) (soybean; Preemergence, Rate 125 g/ha): 0 | Soybean plant response rating (soybean; [1]): 0 | Soybean plant response rating (soybean; [2]): 0 | Soybean plant response rating (soybean; [3]): 4 | Soybean plant response rating (soybean; [4]): 4 | Plant response rating, Soybean (soybean; [5]): 4 | Nutsedge plant response rating (0 to 10 scale) (purple nutsedge; Preemergence, Rate 125 g/ha): 0 | Nutsedge plant response rating (purple nutsedge; [1]): 0 | Nutsedge plant response rating (purple nutsedge; [3]): 0 | Nutsedge plant response rating (purple nutsedge; [4]): 0 | Plant response rating, Nutsedge (purple nutsedge; [5]): 0 | Blackgrass plant response rating (0 to 10 scale) (blackgrass; Preemergence, Rate 125 g/ha): 0 | Blackgrass plant response rating (blackgrass; [1]): 0 | Blackgrass plant response rating (blackgrass; [2]): 4 | Blackgrass plant response rating (blackgrass; [3]): 0 | Blackgrass plant response rating (blackgrass; [4]): 0 | Plant response rating, Blackgrass (blackgrass; [5]): 0 | Blackgrass plant response rating (blackgrass; [6]): 0 | Cocklebur plant response rating (0 to 10 scale) (cocklebur; Preemergence, Rate 125 g/ha): 0 | Cocklebur plant response rating (cocklebur; [1]): 0 | Cocklebur plant response rating (cocklebur; [2]): 0 | Cocklebur plant response rating (cocklebur; [3]): 0 | Cocklebur plant response rating (cocklebur; [4]): 0 | Plant response rating, Cocklebur (cocklebur; [5]): 0 | Cocklebur plant response rating (cocklebur; [6]): 0 | S. Flatsedge plant response rating (smallflower flatsedge; [7]): 0 | S. Flatsedge plant response rating (smallflower flatsedge; [8]): 0 | S. Flatsedge plant response rating (smallflower flatsedge; [9]): 0 | S. Flatsedge plant response rating (smallflower flatsedge; [10]): 0 | Barnyardgrass plant response rating (bamyardgrass; [7]): 0 | Barnyardgrass plant response rating (bamyardgrass; [8]): 0 | Barnyardgrass plant response rating (bamyardgrass; [9]): 0 | Barnyardgrass plant response rating (bamyardgrass; [10]): 0 | Wheat plant response rating (0 to 10 scale) (wheat; Preemergence, Rate 125 g/ha): 0 | Wheat plant response rating (wheat; [1]): 0 | Wheat plant response rating (wheat; [2]): 0 | Wheat plant response rating (wheat; [3]): 0 | Wheat plant response rating (wheat; [4]): 0 | Plant response rating, Wheat (wheat; [5]): 0 | Sugarbeets plant response rating (0 to 10 scale) (sugar beet; Preemergence, Rate 125 g/ha): 0 | Sugarbeets plant response rating (sugar beet; [1]): 0 | Sugarbeets plant response rating (sugar beet; [2]): 3 | Sugarbeets plant response rating (sugar beet; [3]): 0 | Sugarbeets plant response rating (sugar beet; [4]): 0 | Plant response rating, Sugarbeets (sugar beet; [5]): 0 | Bedstraw plant response rating (bedstraw; Preemergence, Rate 250 g/ha): 0 | Bedstraw plant response rating (bedstraw; Preemergence, Rate 500 g/ha): 0 | Bedstraw plant response rating (bedstraw; Rate 125 g/ha, Postemergence): 0 | Velvetleaf plant response rating (0 to 10 scale) (velvetleaf; Preemergence, Rate 125 g/ha): 0 | Velvetleaf plant response rating (velvetleaf; [1]): 0 | Velvetleaf plant response rating (velvetleaf; [2]): 0 | Velvetleaf plant response rating (velvetleaf; [3]): 0 | Velvetleaf plant response rating (velvetleaf; [4]): 0 | Plant response rating, Velvetleaf (velvetleaf; [5]): 0 | Rice plant response rating (rice; [7]): 0 | Rice plant response rating (rice; [8]): 0 | Rice plant response rating (rice; [9]): 0 | Rice plant response rating (rice; [10]): 0 | Rape plant response rating (0 to 10 scale) (rape; Preemergence, Rate 125 g/ha): 0 | Rape plant response rating (rape; [1]): 0 | Rape plant response rating (rape; [2]): 0 | Rape plant response rating (rape; [3]): 0 | Rape plant response rating (rape; [4]): 0 | Plant response rating, Rape (rape; [5]): 0 | B. signalgrass plant response rating (0 to 10 scale, 0 is no effect, 10 is complete control) (surinam grass; Preemergence, Rate 125 g/ha): 0 | B. signalgrass plant response rating (surinam grass; [1]): 0 | B. signalgrass plant response rating (surinam grass; [2]): 5 | B. signalgrass plant response rating (surinam grass; [3]): 0 | B. signalgrass plant response rating (surinam grass; [4]): 0 | Plant response rating, B. signalgrass (surinam grass; [5]): 0 | B. signalgrass plant response rating (surinam grass; [6]): 0 | Wild oats plant response rating (0 to 10 scale) (wild oat; Preemergence, Rate 125 g/ha): 0 | Wild oats plant response rating (wild oat; [1]): 0 | Wild oats plant response rating (wild oat; [2]): 1 | Wild oats plant response rating (wild oat; [3]): 0 | Wild oats plant response rating (wild oat; [4]): 0 | Plant response rating, Wild oats (wild oat; [5]): 0 | Crabgrass plant response rating (0 to 10 scale) (crabgrass; Preemergence, Rate 125 g/ha): 4 | Crabgrass plant response rating (crabgrass; [1]): 6 | Crabgrass plant response rating (crabgrass; [2]): 7 | Crabgrass plant response rating (crabgrass; [3]): 0 | Crabgrass plant response rating (crabgrass; [4]): 0 | Plant response rating, Crabgrass (crabgrass; [5]): 0
